Data published in ChEMBL document CHEMBL4411306, “High-throughput screening of novel pyruvate dehydrogenase kinases inhibitors and biological evaluation of their in vitro and in vivo antiproliferative activity” (Eur J Med Chem, 2019).
Calls of active or inactive are those of the source. The rule behind the calls is not given here.

Experiments:
[1] = system: NCI-H1975; test: Induction of apoptosis in human NCI-H1975 cells assessed as live cells at 10 uM after 12 hrs by Annexin V-FITC/propidium iodide staining based flow cytometry (reference value: 92.7%); format: functional
[2] = Permeability across human Caco2 cells by liquid scintillation counting method; format: ADME, cell-based; conditions: caco-2
[3] = system: NCI-H1975; test: Inhibition of PDK in human NCI-H1975 cells assessed as reduction in PDH phosphorylation at 10 uM after 12 hrs by Western blot analysis; format: cell-based
[4] = system: NCI-H1975; test: Induction of apoptosis in human NCI-H1975 cells assessed as late apoptotic cells at 4 uM after 12 hrs by Annexin V-FITC/propidium iodide staining based flow cytometry (reference value: 3.7%); format: functional
[5] = system: NCI-H1975; test: Induction of apoptosis in human NCI-H1975 cells assessed as late apoptotic cells at 2 uM after 12 hrs by Annexin V-FITC/propidium iodide staining based flow cytometry (reference value: 3.7%); format: functional
[6] = system: NCI-H1975; test: Antitumor activity against human NCI-H1975 cells xenografted in nude mouse assessed as tumor growth inhibition administered orally once daily for 21 days; format: functional, cell-based
[7] = Toxicity in nude mouse xenografted with human NCI-H1975 cells assessed as effect on body weight at 10 to 20 mg/kg, po administered once daily for 21 days measured twice weekly during compound dosing; format: organism-based; conditions: in vivo, 504 h
[8] = system: NCI-H1975; test: Induction of apoptosis in human NCI-H1975 cells assessed as early apoptotic cells at 4 uM after 12 hrs by Annexin V-FITC/propidium iodide staining based flow cytometry (reference value: 1.8%); format: functional
[9] = system: NCI-H1975; test: Antiproliferative activity against human NCI-H1975 cells assessed as reduction in cell viability after 72 hrs by MTT assay; format: functional
[10] = target: T1, [Pyruvate dehydrogenase (acetyl-transferring)] kinase isozyme 1, mitochondrial (Homo sapiens, UniProt Q15118); test: Inhibition of PDK1 in human NCI-H1975 cells assessed as switch of pyruvate metabolism from lactate production to oxidative phosphorylation by measuring increase in ROS production at high concentration after 4 hrs by DCFH-DA dye based assay; format: cell-based
[11] = target: T1, [Pyruvate dehydrogenase (acetyl-transferring)] kinase isozyme 1, mitochondrial; test: Inhibition of PDK1 in human NCI-H1975 cells assessed as switch of pyruvate metabolism from lactate production to oxidative phosphorylation by measuring decrease in extracellular acidification rate at 1 to 10 uM measured after 4 hrs by XFe24 extracellular flux analyzer based assay; format: cell-based
[12] = target: T1, [Pyruvate dehydrogenase (acetyl-transferring)] kinase isozyme 1, mitochondrial; test: Binding affinity to recombinant human His-tagged PDK1 expressed in Escherichia coli by isothermal calorimetry
[13] = target: T1, [Pyruvate dehydrogenase (acetyl-transferring)] kinase isozyme 1, mitochondrial; test: Inhibition of recombinant human His-tagged PDK1 expressed in Escherichia coli using PDH E1 as substrate measured after 30 mins by Kinase-Glo luminescence assay
[14] = system: NCI-H1975; test: Induction of apoptosis in human NCI-H1975 cells assessed as necrotic cells at 10 uM after 12 hrs by Annexin V-FITC/propidium iodide staining based flow cytometry (reference value: 1.8%); format: functional
[15] = Inhibition of porcine PDK assessed as activation of pyruvate dehydrogenase complex measured after 3 mins; parameters: species or system Sus scrofa
[16] = system: NCI-H1975; test: Antitumor activity against human NCI-H1975 cells xenografted in nude mouse assessed as reduction in tumor weight administered orally once daily for 21 days; format: functional, cell-based
[17] = system: NCI-H1975; test: Induction of apoptosis in human NCI-H1975 cells assessed as early apoptotic cells at 2 uM after 12 hrs by Annexin V-FITC/propidium iodide staining based flow cytometry (reference value: 1.8%); format: functional
[18] = system: NCI-H1975; test: Induction of apoptosis in human NCI-H1975 cells assessed as late apoptotic cells at 10 uM after 12 hrs by Annexin V-FITC/propidium iodide staining based flow cytometry (reference value: 3.7%); format: functional
[19] = target: [Pyruvate dehydrogenase (acetyl-transferring)] kinase isozyme 3, mitochondrial (Homo sapiens, UniProt Q15120); test: Inhibition of recombinant human His-tagged PDK3 expressed in Escherichia coli using PDH E1 as substrate measured after 30 mins by Kinase-Glo luminescence assay
[20] = system: NCI-H1975; test: Induction of apoptosis in human NCI-H1975 cells assessed as live cells at 2 uM after 12 hrs by Annexin V-FITC/propidium iodide staining based flow cytometry (reference value: 92.7%); format: functional
[21] = system: Mus musculus; test: In-vivo of inhibition of PDH phosphorylation in tumor of nude mouse xenografted with human NCI-H1975 cells at 10 to 20 mg/kg, po administered once daily for 21 days measured post last dose by Western blot analysis; format: functional, organism-based
[22] = system: NCI-H1975; test: Induction of apoptosis in human NCI-H1975 cells assessed as necrotic cells at 0.5 uM after 12 hrs by Annexin V-FITC/propidium iodide staining based flow cytometry (reference value: 1.8%); format: functional
[23] = system: NCI-H1650; test: Antiproliferative activity against human NCI-H1650 cells assessed as reduction in cell viability after 72 hrs by MTT assay; format: functional
[24] = target: Heat shock protein HSP90 (Homo sapiens, UniProt P07900+P08238); test: Inhibition of human HSP90 measured after 30 mins by fluorescence polarization assay; format: protein assay
[25] = system: NCI-H1975; test: Induction of apoptosis in human NCI-H1975 cells assessed as live cells at 0.5 uM after 12 hrs by Annexin V-FITC/propidium iodide staining based flow cytometry (reference value: 92.7%); format: functional
[26] = system: NCI-H1975; test: Induction of apoptosis in human NCI-H1975 cells assessed as early apoptotic cells at 0.5 uM after 12 hrs by Annexin V-FITC/propidium iodide staining based flow cytometry (reference value: 1.8%); format: functional
[27] = Antiproliferative activity against human BEAS2B cells assessed as reduction in cell viability after 72 hrs by MTT assay; format: cell-based; conditions: BEAS-2B cells, read-out: GC50
[28] = system: HCT-116; test: Antiproliferative activity against human HCT116 cells assessed as reduction in cell viability after 72 hrs by MTT assay; format: functional
[29] = target: T1, [Pyruvate dehydrogenase (acetyl-transferring)] kinase isozyme 1, mitochondrial; test: Inhibition of PDK1 in human NCI-H1975 cells assessed as switch of pyruvate metabolism from lactate production to oxidative phosphorylation by measuring by measuring reduction in lactate formation at 10 uM measured after 4 hrs; format: cell-based
[30] = system: NCI-H1975; test: Induction of apoptosis in human NCI-H1975 cells assessed as live cells at 4 uM after 12 hrs by Annexin V-FITC/propidium iodide staining based flow cytometry (reference value: 92.7%); format: functional
[31] = system: A-375; test: Antiproliferative activity against human A375 cells assessed as reduction in cell viability after 72 hrs by MTT assay; format: functional
[32] = system: NCI-H1975; test: Induction of apoptosis in human NCI-H1975 cells assessed as early apoptotic cells at 10 uM after 12 hrs by Annexin V-FITC/propidium iodide staining based flow cytometry (reference value: 1.8%); format: functional
[33] = system: NCI-H1975; test: Induction of apoptosis in human NCI-H1975 cells assessed as late apoptotic cells at 0.5 uM after 12 hrs by Annexin V-FITC/propidium iodide staining based flow cytometry (reference value: 3.7%); format: functional
[34] = system: HepG2; test: Antiproliferative activity against human HepG2 cells assessed as reduction in cell viability after 72 hrs by MTT assay; format: functional
[35] = target: T2, [Pyruvate dehydrogenase (acetyl-transferring)] kinase isozyme 2, mitochondrial (Homo sapiens, UniProt Q15119); test: Inhibition of recombinant human His-tagged PDK2 expressed in Escherichia coli using PDH E1 as substrate measured after 30 mins by Kinase-Glo luminescence assay
[36] = system: NCI-H1975; test: Induction of apoptosis in human NCI-H1975 cells after 12 hrs by Annexin V-FITC/propidium iodide staining based flow cytometry; format: functional, cell-based
[37] = system: NCI-H1975; test: Induction of apoptosis in human NCI-H1975 cells assessed as necrotic cells at 4 uM after 12 hrs by Annexin V-FITC/propidium iodide staining based flow cytometry (reference value: 1.8%); format: functional
[38] = system: MCF7; test: Antiproliferative activity against human MCF7 cells assessed as reduction in cell viability after 72 hrs by MTT assay; format: functional
[39] = target: [Pyruvate dehydrogenase (acetyl-transferring)] kinase isozyme 4, mitochondrial (Homo sapiens, UniProt Q16654); test: Inhibition of recombinant human His-tagged PDK4 expressed in Escherichia coli using PDH E1 as substrate measured after 30 mins by Kinase-Glo luminescence assay
[40] = system: A549; test: Antiproliferative activity against human A549 cells assessed as reduction in cell viability after 72 hrs by MTT assay; format: functional
[41] = system: NCI-H1975; test: Induction of apoptosis in human NCI-H1975 cells assessed as necrotic cells at 2 uM after 12 hrs by Annexin V-FITC/propidium iodide staining based flow cytometry (reference value: 1.8%); format: functional
[42] = target: T1, [Pyruvate dehydrogenase (acetyl-transferring)] kinase isozyme 1, mitochondrial; test: Inhibition of PDK1 in human NCI-H1975 cells assessed as switch of pyruvate metabolism from lactate production to oxidative phosphorylation by measuring increase in oxygen consumption rates at 1 to 10 uM measured after 4 hrs by XFe24 extracellular flux analyzer based assay; format: cell-based
[43] = target: T2, [Pyruvate dehydrogenase (acetyl-transferring)] kinase isozyme 2, mitochondrial; test: Inhibition of recombinant human His6-tagged N-terminal PDHK2 (A8 to T399 residues) expressed in baculovirus expression system using PDC as substrate incubated for 10 mins followed by ATP addition measured at 12 secs interval for 20 mins

T1 sequence (Q15118 whole entry): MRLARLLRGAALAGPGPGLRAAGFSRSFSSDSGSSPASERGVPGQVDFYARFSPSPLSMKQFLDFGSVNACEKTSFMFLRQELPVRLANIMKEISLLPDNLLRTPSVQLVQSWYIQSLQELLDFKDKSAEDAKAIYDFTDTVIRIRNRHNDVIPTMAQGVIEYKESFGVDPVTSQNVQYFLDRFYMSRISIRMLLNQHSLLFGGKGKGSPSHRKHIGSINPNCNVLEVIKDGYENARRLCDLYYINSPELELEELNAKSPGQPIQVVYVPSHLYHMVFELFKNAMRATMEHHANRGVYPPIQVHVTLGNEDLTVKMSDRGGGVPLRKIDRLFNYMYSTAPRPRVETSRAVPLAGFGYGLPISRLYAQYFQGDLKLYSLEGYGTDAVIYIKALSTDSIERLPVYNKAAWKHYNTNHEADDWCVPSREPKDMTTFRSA
Sequence of [Pyruvate dehydrogenase (acetyl-transferring)] kinase isozyme 3, mitochondrial (Q15120 whole entry): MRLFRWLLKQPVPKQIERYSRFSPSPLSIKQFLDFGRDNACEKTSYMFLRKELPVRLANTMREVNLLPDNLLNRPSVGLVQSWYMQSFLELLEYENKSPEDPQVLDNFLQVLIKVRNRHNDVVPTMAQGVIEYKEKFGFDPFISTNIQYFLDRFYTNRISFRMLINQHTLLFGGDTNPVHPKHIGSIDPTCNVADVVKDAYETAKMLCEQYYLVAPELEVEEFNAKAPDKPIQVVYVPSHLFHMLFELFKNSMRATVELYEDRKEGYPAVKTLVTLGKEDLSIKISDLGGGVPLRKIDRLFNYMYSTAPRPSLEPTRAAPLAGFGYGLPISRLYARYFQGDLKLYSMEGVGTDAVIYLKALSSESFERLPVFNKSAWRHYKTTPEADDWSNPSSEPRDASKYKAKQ
Sequence of [Pyruvate dehydrogenase (acetyl-transferring)] kinase isozyme 4, mitochondrial (Q16654 whole entry): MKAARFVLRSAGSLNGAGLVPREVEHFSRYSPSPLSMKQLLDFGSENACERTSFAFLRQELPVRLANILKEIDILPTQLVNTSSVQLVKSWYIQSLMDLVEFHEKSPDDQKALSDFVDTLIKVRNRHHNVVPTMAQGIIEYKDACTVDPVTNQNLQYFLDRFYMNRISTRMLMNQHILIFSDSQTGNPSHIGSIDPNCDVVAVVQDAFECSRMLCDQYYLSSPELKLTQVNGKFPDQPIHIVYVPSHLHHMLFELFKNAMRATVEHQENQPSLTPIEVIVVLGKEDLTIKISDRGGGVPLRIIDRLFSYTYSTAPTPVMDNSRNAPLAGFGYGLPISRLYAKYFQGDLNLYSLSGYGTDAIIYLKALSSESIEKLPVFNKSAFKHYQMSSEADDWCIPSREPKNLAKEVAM

Cc1cccc(NC(=O)CSc2n[nH]c(-c3ccccc3O)n2)c1C
Activity [1]: 73.4%
Papp [2]: 8.51 ×10⁻⁶ cm/s
reduction in PDH phosphorylation (qualitative) [3]: Active
Activity [4]: 10.6%
Activity [5]: 5%
TGI [6]: Dose-dependent effect
Activity [7]: Non-Toxic
Activity [8]: 2.7%
Activity [9]: Dose-dependent effect
GC50 [9]: 2300 nM
inhibition [10]: Active
inhibition [11]: Active
Kd [12]: 870 nM
IC50 [13]: 290 nM
Activity [14]: 2.4%
EC50 [15]: 340 nM
Activity [16]: Dose-dependent effect
Activity [17]: 3.1%
Activity [18]: 11.1%
IC50 [19]: 5700 nM
Activity [20]: 90.3%
inhibition [21]: Active
Activity [22]: 0.9%
Activity [23]: Dose-dependent effect
GC50 [23]: 3100 nM
IC50 [24]: 780 nM
Activity [25]: 92.3%
Activity [26]: 2%
GI50 at 72 h [27]: > 20000 nM
Activity [28]: Dose-dependent effect
GC50 [28]: 12700 nM
inhibition [29]: Active
Activity [30]: 85.5%
Activity [31]: Dose-dependent effect
GC50 [31]: 6400 nM
Activity [32]: 13.1%
Activity [33]: 4.8%
Activity [34]: Dose-dependent effect
GC50 [34]: 5200 nM
IC50 [35]: 3800 nM
Activity [36]: Dose-dependent effect
Activity [37]: 1.2%
Activity [38]: Dose-dependent effect
GC50 [38]: 9500 nM
IC50 [39]: 2500 nM
Activity [40]: Dose-dependent effect
GC50 [40]: 7900 nM
Activity [41]: 1.6%
inhibition [42]: Active

CC(C)c1ccc(COc2ccc(CC(=O)NCCN)cc2Cl)cc1
IC50 [43]: 2000 nM
